Literature values, collected in US12329730B2, “Thermoresponsive hydrogel containing polymer microparticles for controlled drug delivery” (UNIVERSITY OF PITTSBURGH—OF THE COMMONWEALTH SYSTEM OF …, priority 2017, dated 2025).
≈ marks a conversion by molar mass, not a printed value.

Tested on: Streptococcus pneumoniae and Haemophilus influenzae
Conditions: Jacobs et al. 1999

O=C(O)c1cn(C2CC2)c2cc(N3CCNCC3)c(F)cc2c1=O [ciprofloxacin]
minimum inhibitory concentration (MIC): 2 µg/mL (≈ 6.04 µM)
